Assay results: PubChem BioAssay (NCI)
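Test compounds were applied to cells in 96-well plates for 48 hours at 5 doses. TGI is the concentration that stops growth completely.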

What was measured:
Assay in all cases: growth of human tumour cells (NCI), 48 h
NCI-H23 lung = test system: NCI-H23 lung
NCI/ADR-RES ovarian = test system: NCI/ADR-RES ovarian
MCF7 breast = test system: MCF7 breast
SW-620 colon = test system: SW-620 colon
RXF 393 renal = test system: RXF 393 renal
SK-MEL-28 melanoma = test system: SK-MEL-28 melanoma
HCT-15 colon = test system: HCT-15 colon
MDA-N = test system: MDA-N
HS 578T breast = test system: HS 578T breast
MDA-MB-435 = test system: MDA-MB-435

| Compound | TGI (NCI-H23 lung) [µM] | TGI (NCI/ADR-RES ovarian) [µM] | TGI (MCF7 breast) [µM] | TGI (SW-620 colon) [µM] | TGI (RXF 393 renal) [µM] | TGI (SK-MEL-28 melanoma) [µM] | TGI (HCT-15 colon) [µM] | TGI (MDA-N) [µM] | TGI (HS 578T breast) [µM] | TGI (MDA-MB-435) [µM] |
| --- | --- | --- | --- | --- | --- | --- | --- | --- | --- | --- |
| O=NN1C(c2ccccc2)C2CCCC(C2=O)C1c1ccccc1 (configuration not stated) | 48.3 | > 89.6 | 46.4 | > 100 | 41.8 | 44.3 | > 87.7 | – | – | – |
| COc1ccc(C(=O)O[C@H]2CC[C@@]3(C)[C@@H]4CC[C@H]5[C@]6(O)C[C@H](O)[C@@]7(O)[C@@H](CN8C[C@@H](C)CC[C@H]8[C@@]7(C)O)[C@]6(O)C[C@@]53OC24O)cc1OC | > 100 | > 100 | > 100 | > 100 | > 100 | > 100 | > 100 | > 100 | > 100 | > 100 |
| Cc1cn(C2C=CC(COP(=O)(OCc3ccc([N+](=O)[O-])o3)N(C)CCCCCl)O2)c(=O)[nH]c1=O (configuration not stated) | 10.7 | > 100 | 19.6 | 27.1 | 11.3 | 22.4 | 35.7 | 11.8 | 9.89 | 4.42 |
| COc1ccc(NC(=S)NNC(=O)c2nsc3ccccc23)cc1 | > 100 | – | – | > 100 | 72.9 | > 100 | > 100 | – | – | – |
| Nc1c(OCC(=O)O)ccc2cc(S(=O)(=O)O)ccc12 | > 100 | > 100 | > 100 | > 100 | > 100 | > 100 | > 100 | > 100 | > 100 | > 100 |
| c1cc(-c2ccc(-c3nc4ccc(C5=NCCN5)cc4s3)s2)ccc1C1=NCCN1 | > 100 | > 100 | 0.255 | > 100 | – | – | 16.6 | 1 | – | – |
| O=C1C[C@H](COCc2ccccc2)NC(=O)C[C@H](COCc2ccccc2)NC(=O)C[C@H](COCc2ccccc2)N1 | > 100 | > 100 | > 100 | > 100 | 27.1 | > 100 | > 100 | > 100 | > 100 | > 100 |
| CN(C)CCCNc1ccc2nnn3c4ccc(OC(=O)c5ccccc5)cc4c(=O)c1c23 | 32.2 | 37.9 | 30 | 21.2 | 12.8 | 30.2 | 33.7 | 30.1 | 36.6 | 19.1 |
| CN(CCO)Cc1ncccc1O | > 100 | > 100 | > 100 | > 100 | > 100 | > 100 | > 100 | – | > 100 | > 100 |
| CCCCN(CCCC)CCC(O)c1cc(-c2ccc(C(F)(F)F)cc2)nc(-c2ccc(C(F)(F)F)cc2)c1 (configuration not stated) | > 100 | > 100 | > 100 | > 100 | – | > 100 | > 100 | > 100 | – | > 100 |
| C[C@]12Cc3cnc(-c4ccccc4)nc3C[C@@H]1CC[C@@H]1[C@@H]2CC[C@@]2(C)[C@H]1CC[C@]2(C)O | 47.3 | 57 | 76.5 | > 100 | 12.3 | 56.9 | > 63.2 | 48.9 | 65.2 | > 70.4 |
| CCOC(=O)Nc1sc2c(c1C#N)CC(C)CC2 (configuration not stated) | > 100 | 7.86 | 24.5 | > 100 | 70.2 | > 100 | > 100 | – | 65.9 | > 100 |
| COc1ccc(C(=O)NC2=C(Cl)C(=O)c3ccccc3C2=O)cc1 | 6.05 | 9.05 | 17.8 | 3.45 | 8.25 | 17.9 | 11 | 10.7 | 33.5 | 7.53 |
| COc1ccc(/C=C2\C[C@H]3[C@@H]4CC=C5C[C@@H](OC(C)=O)CC[C@]5(C)[C@H]4CC[C@]3(C)\C2=N\O)cc1OC | > 100 | > 100 | > 100 | > 100 | > 100 | > 100 | > 100 | > 100 | > 100 | > 100 |
| CC(C)=Cc1cc(C)c2c3c(c(O)c(O)c(C)c13)C(C)=CC2=O | 64.5 | 81.5 | 68.7 | > 100 | – | – | 51.3 | > 100 | 74.4 | 55.1 |
| CC[C@H](C)C1=C(OC(C)=O)[N@+]2([O-])Oc3ccc(-c4c(O)c(O)c(-c5ccc(OC(C)=O)cc5)c(OC(C)=O)c4OC(C)=O)cc3O[C@]2([C@@H](C)CC)C(=O)N1O | > 50 | > 50 | > 50 | 34.5 | > 50 | > 50 | > 50 | > 50 | > 50 | > 50 |
